Structures can show the parent of a compound that is named as a salt.

For data set [1], the target named is T1, hOAT (Homo sapiens, UniProt P04181).
T1 construct: made in house; host or cells: E. coli BL21(DE3)
T1 sequence (P04181 26-439): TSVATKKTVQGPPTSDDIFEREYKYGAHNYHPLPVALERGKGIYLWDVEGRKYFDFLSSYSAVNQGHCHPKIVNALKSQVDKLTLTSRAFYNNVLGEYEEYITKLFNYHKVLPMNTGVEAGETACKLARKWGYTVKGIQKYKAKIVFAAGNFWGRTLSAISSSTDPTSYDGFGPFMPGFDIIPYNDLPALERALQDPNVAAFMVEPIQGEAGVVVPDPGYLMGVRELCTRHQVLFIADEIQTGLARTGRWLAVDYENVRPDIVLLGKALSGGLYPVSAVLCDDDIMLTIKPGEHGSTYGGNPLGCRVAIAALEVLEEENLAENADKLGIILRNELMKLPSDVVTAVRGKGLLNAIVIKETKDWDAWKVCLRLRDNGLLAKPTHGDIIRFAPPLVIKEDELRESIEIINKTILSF
Briefly: Time-dependent inactivation of hOAT. In kind it is biochemical. The protocol:
All reagents for enzyme purification and assays were purchased from Sigma-Aldrich (St. Louis, MO, USA). Human OAT (0.672 mg/mL) was purified from E. coli BL21 (DE3) cells following the procedure described above, and coenzyme human recombinant pyrroline 5-carboxylate reductase (PYCRI) were expressed, grown, and purified according to a literature procedure.^4 γ-Aminobutyric acid aminotransferase (GABA-AT, 0.4 mg/mL) was purified from pig brain following a procedure described previously^5, and coenzyme succinic semialdehyde dehydrogenase (SSDH) was purified from GABase (catalog No. G7509-25UN, Sigma-Aldrich), a commercially available mixture of SSDH and GABA-AT, using a known procedure.^6 Commercially available L-aspartate aminotransferase (Asp-AT) from the porcine heart (catalog No. G2751-2KU, Sigma-Aldrich) and the desired assay coenzyme malic dehydrogenase from porcine (catalog No. M2634-5KU, Sigma-Aldrich), and L-alanine aminotransferase (Ala-AT) from the porcine heart (catalog No. G8255-200UN, Sigma-Aldrich) and the desired assay coenzyme lactate dehydrogenase from porcine (catalog No. 427211-50KU, Sigma-Aldrich) were used directly without further purification. All the enzyme assays for the inactivation, partition ratio, and dialysis experiment were recorded on a Synergy H1 hybrid multimode microplate reader (Biotek, USA) with transparent 96-well plates.
Time-dependent inactivation against hOAT was performed using an optimized procedure published previously.^7 10 μL of hOAT (0.025 mg/mL) was preincubated with 10 μL of various concentrations of tested compounds in 100 mM potassium pyrophosphate buffer (pH 8.0, 5 mM α-ketoglutarate, and 5 mM β-mercaptoethanol) at 25° C. in a 96-well plate. At time intervals, 80 μL of assay solution containing PYCR^1 (0.5 μg), 1 mM NADH, and 25 mM L-ornithine in the abovementioned potassium pyrophosphate buffer were added to the incubation mixture and assayed for OAT activity at 37° C. for 30 min. The change in UV absorbance at 340 nm at 37° C. based on the conversion of NADH to NAD was monitored by a microplate reader. All assays were performed in duplicate, and the remaining OAT activity at each preincubation time at each inhibitor concentration was averaged. The natural logarithm of the percentage of the remaining OAT activity was plotted against the preincubation time at each inhibitor concentration to obtain the kobs (slope) value for each concentration. The kobs value is the rate constant describing the inactivation at each inhibitor concentration. kobs is replotted against the inhibitor concentration using nonlinear regression analysis using GraphPad Prism 8.0. K1 and kinact values were estimated from equation (1)
where kinact is the maximal rate of inactivation, K1 is the inhibitor concentration required for half-maximal inactivation, and [I] is the preincubation concentration of the tested compound.

For data set [2], the target named is T1, hOAT. The data set is described as follows: Denaturing intact protein mass spectrometry of inactivated hOAT. Particulars: hOAT fully inactivated; denaturing intact LC-MS. The source says:
The majority of hOAT remained unmodified (FIG. 5A, top) in comparison with native hOAT as a control (FIG. 5A, bottom). […] However, one would expect a higher abundance of covalently adducted enzyme under these conditions where the enzyme is fully inactivated. This finding thus supported a major non-covalent, inactivation mechansim between hOAT and SS-1-148.
Treated and unmodified purified hOAT samples were desalted ten times with Optima-grade water (Fisher) on Amicon Ultra 10 KDa molecular weight spin filters (Millipore). To chromatographically resolve protein. 0.5 μg of protein was loaded onto a 3 cm PLRP-S (Agilent) trap column using a Dionex Ultimate3000 liquid chromatography system (Thermo Fisher). The protein analyte was washed with a 10-min isocratic gradient of 10% Solvent B (95% acetonitrile/5% H2O/0.2% formic acid) and 90% Solvent A (5% acetonitrile/95% H20/0.2% formic acid). Protein was resolved on an in-house made 75 μm ID×15 cm long nanopore capillary column packed with PLRP-S resin (Agilent). […]

Data set [3] is described as follows: Liver microsomal stability, human. Format: in vitro ADME.

Take `N[C@H]1C=C(C(=O)O)CC1(F)F` [SS-1-148, (S)-3-Amino-4,4-difluorocyclopent-1-enecarboxylic acid hydrochloric acid salt]: at hOAT [1], the “improvement of inactivation efficiency (kinact/K1) relative to parent compound 4” value is recorded as 444 fold and the “type of inhibition on hOAT” value is “irreversible inhibitor”. Also, the kinact/KI at hOAT [1] (inactivation efficiency) is 22.2 M⁻¹ s⁻¹. Moreover, at hOAT [1] (mean and standard error), the kinact is 0.00133 s⁻¹. Further, the hOAT covalently modified at hOAT [2] is on record as ~16%. In addition, in data set [3], the “Liver microsomal stability (t1/2) Human” value is listed as “N/C”.

For the origin of these results see patent publication US20240174596A1 (Northwestern University, priority 2021, published 2024).
